# Data taken from ChEMBL document CHEMBL5532756, “Phenylthiazoles with potent & optimum selectivity toward Clostridium difficile” (RSC Med Chem, 2024).
# Key:
# [1] = test system: Staphylococcus aureus; test: Antimicrobial activity against methicillin-resistant Staphylococcus aureus USA300; format: functional
# [2] = test system: Escherichia coli; test: Antimicrobial activity against Escherichia coli BW25113; format: functional
# [3] = test system: Neisseria gonorrhoeae; test: Antimicrobial activity against Neisseria gonorrhoeae 194; format: functional
# [4] = test system: Escherichia coli; test: Antimicrobial activity against Escherichia coli JW55031 harboring TolC mutant; format: functional
# [5] = test system: Clostridioides difficile; test: Antimicrobial activity against Clostridioides difficile ATCC BAA-1870; format: functional
# [6] = test system: Candida albicans; test: Antimicrobial activity against Candida albicans ATCC 64124; format: functional
# [7] = test system: Bifidobacterium breve; test: Antibacterial activity against Bifidobacterium breve HM-1120; format: functional
# [8] = test system: Bacteroides fragilis; test: Antibacterial activity against Bacteroides fragilis HM-709; format: functional
# [9] = test system: Lacticaseibacillus casei; test: Antibacterial activity against Lactobacillus casei ATCC 334; format: functional
# [10] = test system: Lactobacillus gasseri; test: Antibacterial activity against Lactobacillus gasseri HM-400; format: functional
# [11] = Antibacterial activity against Bifidobacterium longum subsp. Longum HM-845; format: functional
# [12] = test system: Clostridioides difficile; test: Antibacterial activity against Clostridioides difficile I 13; format: functional
# [13] = test system: Clostridioides difficile; test: Antibacterial activity against Clostridioides difficile ATCC 43598; format: functional
# [14] = test system: HRT-18 cell line; test: Cytotoxicity against human HRT-18 cell line assessed as cell viability upto 64 ug/ml; format: toxicity, cell-based; conditions: dose < 64 µg/ml
# [15] = test system: Clostridioides difficile; test: Antibacterial activity against Clostridioides difficile P7; format: functional
# [16] = test system: Bifidobacterium breve; test: Antibacterial activity against Bifidobacterium breve HM-411; format: functional
# [17] = test system: Bacteroides fragilis; test: Antibacterial activity against Bacteroides fragilis HM-714; format: functional
# [18] = test system: Phocaeicola dorei; test: Antibacterial activity against Bacteroides dorei HM-719; format: functional
# [19] = test system: Clostridioides difficile; test: Antibacterial activity against Clostridioides difficile I 11; format: functional
# [20] = test system: Lactobacillus crispatus; test: Antibacterial activity against Lactobacillus crispatus HM-420; format: functional
# [21] = Cytotoxicity against African green monkey Vero cells assessed as cell viability at 0.5 to 64 ug/ml relative to control; format: toxicity, cell-based; conditions: chlorocebus sabaeus, at 0.5 to 64 µg/mL, dose 0.5-64 µg/ml, read-out: Activity
SMILES,MIC [1],MIC [2],MIC [3],MIC [4],MIC [5],MIC [6],other results
Cc1nc(-c2ccc3ccccc3c2)sc1-c1ccnc(N2CCCCC2CN)n1 (stereo unspecified),> 64 µg/mL,> 64 µg/mL,> 64 µg/mL,> 64 µg/mL,64 µg/mL,16 µg/mL,
Cc1nc(-c2ccc3ccccc3c2)sc1-c1ccnc(NCCO)n1,> 64 µg/mL,> 64 µg/mL,> 64 µg/mL,> 64 µg/mL,64 µg/mL,1 µg/mL,
Cc1nc(-c2ccc3ccccc3c2)sc1-c1ccnc(NC[C@H](O)CO)n1,> 64 µg/mL,> 64 µg/mL,> 64 µg/mL,> 64 µg/mL,64 µg/mL,> 64 µg/mL,
Cc1nc(-c2ccc3ccccc3c2)sc1-c1ccnc(NCCCO)n1,> 64 µg/mL,> 64 µg/mL,> 64 µg/mL,> 64 µg/mL,64 µg/mL,> 64 µg/mL,
Cc1nc(-c2ccc3ccccc3c2)sc1-c1ccnc(N[C@H]2CC[C@H](N)CC2)n1,8 µg/mL,> 64 µg/mL,> 64 µg/mL,> 64 µg/mL,32 µg/mL,16 µg/mL,
Cc1nc(-c2ccc3ccccc3c2)sc1-c1ccnc(NC[C@@H](O)CO)n1,> 64 µg/mL,> 64 µg/mL,> 64 µg/mL,> 64 µg/mL,64 µg/mL,> 64 µg/mL,
Cc1nc(-c2ccc3ccccc3c2)sc1-c1ccnc(-c2cccnc2)n1,> 64 µg/mL,> 64 µg/mL,> 64 µg/mL,> 64 µg/mL,> 64 µg/mL,> 64 µg/mL,
Cc1nc(-c2ccc3ccccc3c2)sc1-c1ccnc(NCC(=N)N)n1,> 64 µg/mL,> 64 µg/mL,> 64 µg/mL,> 64 µg/mL,32 µg/mL,> 64 µg/mL,
Cc1nc(-c2ccc3ccccc3c2)sc1-c1ccnc(NCCCN)n1,> 64 µg/mL,> 64 µg/mL,> 64 µg/mL,> 64 µg/mL,64 µg/mL,> 64 µg/mL,
Cc1nc(-c2ccc3ccccc3c2)sc1-c1ccnc(N2CCC[C@H]2CO)n1,> 64 µg/mL,> 64 µg/mL,> 64 µg/mL,> 64 µg/mL,64 µg/mL,> 64 µg/mL,
Cc1nc(-c2ccc3ccccc3c2)sc1-c1ccnc(N2CCC[C@@H]2C(N)=O)n1,> 64 µg/mL,> 64 µg/mL,> 64 µg/mL,64 µg/mL,64 µg/mL,> 64 µg/mL,
Cc1nc(-c2ccc3ccccc3c2)sc1-c1ccnc(NCCN(C)C)n1,16 µg/mL,> 64 µg/mL,> 64 µg/mL,16 µg/mL,16 µg/mL,16 µg/mL,
Cc1nc(-c2ccc3ccccc3c2)sc1-c1ccnc(N[C@@H]2CCCC[C@H]2N)n1 (relative stereo),4 µg/mL,> 64 µg/mL,64 µg/mL,8 µg/mL,16 µg/mL,8 µg/mL,
Cc1nc(-c2ccc3ccccc3c2)sc1-c1ccnc(NCC(O)CO)n1 (racemic),> 64 µg/mL,> 64 µg/mL,64 µg/mL,> 64 µg/mL,8 µg/mL,> 64 µg/mL,
Cc1nc(-c2ccc3ccccc3c2)sc1-c1ccnc(N2CCC[C@@H]2CO)n1,> 64 µg/mL,> 64 µg/mL,32 µg/mL,> 64 µg/mL,64 µg/mL,> 64 µg/mL,
Cc1nc(-c2ccc3ccccc3c2)sc1-c1ccnc(-c2ccccn2)n1,> 64 µg/mL,> 64 µg/mL,> 64 µg/mL,> 64 µg/mL,0.03 µg/mL,> 64 µg/mL,MIC [7]: > 64 µg/mL; MIC [8]: > 64 µg/mL; MIC [9]: > 64 µg/mL; MIC [10]: > 64 µg/mL; MIC [11]: > 64 µg/mL; MIC [12]: 0.06 µg/mL; MIC [13]: 0.125 µg/mL; Activity [14]: Non-Toxic; MIC [15]: 0.125 µg/mL; MIC [16]: > 64 µg/mL; MIC [17]: > 64 µg/mL; MIC [18]: > 64 µg/mL; MIC [19]: 0.03 µg/mL; MIC [20]: > 64 µg/mL; viability [21]: 100%
Cc1nc(-c2ccc3ccccc3c2)sc1-c1ccnc(-c2ccncc2)n1,> 64 µg/mL,> 64 µg/mL,> 64 µg/mL,> 64 µg/mL,> 64 µg/mL,> 64 µg/mL,
Cc1nc(-c2ccc3ccccc3c2)sc1-c1ccnc(N2CCC[C@H]2C(N)=O)n1,> 64 µg/mL,> 64 µg/mL,> 64 µg/mL,> 64 µg/mL,64 µg/mL,> 64 µg/mL,
Cc1nc(-c2ccc3ccccc3c2)sc1-c1ccnc(N2CC[C@@H](N(C)C)C2)n1,32 µg/mL,64 µg/mL,> 64 µg/mL,> 64 µg/mL,64 µg/mL,64 µg/mL,
Cc1nc(-c2ccc3ccccc3c2)sc1-c1ccnc(NC(CO)CO)n1,> 64 µg/mL,> 64 µg/mL,64 µg/mL,> 64 µg/mL,64 µg/mL,> 64 µg/mL,
Cc1nc(-c2ccc3ccccc3c2)sc1-c1ccnc(N2CC[C@H](N(C)C)C2)n1,32 µg/mL,> 64 µg/mL,> 64 µg/mL,> 64 µg/mL,32 µg/mL,32 µg/mL,
Cc1nc(-c2ccc3ccccc3c2)sc1-c1ccnc(N2CCC(N)C2)n1 (stereo unspecified),8 µg/mL,> 64 µg/mL,> 64 µg/mL,> 64 µg/mL,16 µg/mL,8 µg/mL,
CN[C@H](CC(C)C)C(=O)N[C@H]1C(=O)N[C@@H](CC(N)=O)C(=O)N[C@H]2C(=O)N[C@H]3C(=O)N[C@H](C(=O)N[C@H](C(=O)O)c4cc(O)cc(O)c4-c4cc3ccc4O)[C@H](O)c3ccc(c(Cl)c3)Oc3cc2cc(c3O[C@@H]2O[C@H](CO)[C@@H](O)[C@H](O)[C@H]2O[C@H]2C[C@](C)(N)[C@H](O)[C@H](C)O2)Oc2ccc(cc2Cl)[C@H]1O [VANCOMYCIN],,,,,1 µg/mL,,MIC [7]: 0.25 µg/mL; MIC [8]: 8 µg/mL; MIC [9]: > 8 µg/mL; MIC [10]: > 8 µg/mL; MIC [11]: 0.125 µg/mL; MIC [12]: 0.5 µg/mL; MIC [13]: 0.5 µg/mL; MIC [15]: 0.5 µg/mL; MIC [16]: 0.25 µg/mL; MIC [17]: 8 µg/mL; MIC [18]: 8 µg/mL; MIC [19]: 0.5 µg/mL; MIC [20]: 0.5 µg/mL
Cc1ncc([N+](=O)[O-])n1CCO [METRONIDAZOLE],,,,,0.25 µg/mL,,MIC [7]: > 8 µg/mL; MIC [8]: 1 µg/mL; MIC [9]: > 8 µg/mL; MIC [10]: > 8 µg/mL; MIC [11]: 0.5 µg/mL; MIC [12]: 0.25 µg/mL; MIC [13]: 0.25 µg/mL; MIC [15]: 0.25 µg/mL; MIC [16]: > 8 µg/mL; MIC [17]: 1 µg/mL; MIC [18]: 0.25 µg/mL; MIC [19]: 0.5 µg/mL; MIC [20]: > 8 µg/mL
Cc1nc(-c2ccc3ccccc3c2)sc1-c1ccnc(N[C@@H]2CCCC[C@@H]2N)n1 (relative stereo),4 µg/mL,> 64 µg/mL,32 µg/mL,8 µg/mL,8 µg/mL,8 µg/mL,
